Values of other authors as cited in US20090291152A1, “DIBENZOTHIAZEPINE DERIVATIVES” (Concert Pharmaceuticals Inc., priority 2006, published 2009).

Key:
[1] = majority of the metabolites
[2] = patients with hepatic impairment

## OCCOCCN1CCN(C2=Nc3ccccc3Sc3ccccc32)CC1 [quetiapine, 11-[4-[2-(2-Hydroxyethoxy)ethyl]piperazin-1-yl]dibenzo[b,f][1,4]thiazepine]
[1]
  metabolites excreted in the urine: 73%
[2]
  increase in AUC: 3 fold
  increase in Cmax: 3 fold
